Starred links: 1 amine or outer side, 2 acyl side, 3 side chain; linkers in the order of their positions; H or OH if unused. Non-standard residues stand in square brackets, D forms with d. Residues, ends and D or L forms follow the SMILES beside them. Groups on a side chain read outwards from the residue. *: point of attachment. γGlu = O=C(O)[C@H](CCC(=O)[*:2])N[*:1]; Stearoyl = CCCCCCCCCCCCCCCCCC(=O)*; Palmitoyl = CCCCCCCCCCCCCCCC(=O)*; αMeF = C[C@](N)(Cc1ccccc1)C(=O)O; Myristoyl = CCCCCCCCCCCCCC(=O)*; αMeS = C[C@](N)(CO)C(=O)O; PEG2 = NCCOCCOCCC(=O)O; Aib = CC(C)(N)C(=O)O
Assays:
[1] = biological target: human GLP-1 receptor (hGLP-1R) (Homo sapiens, UniProt P43220); experiment: cAMP production (HTRF) in CHO cells expressing hGLP-1R; assay type: cell-based; set-up: expressed in transfected cells; settings: for % Relative Potency Ratio: Table 6, % GLP-1R activity relative to GLP-1 / % GlucR activity relative to glucagon
Summary of the method: (§1)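 Potency values represent EC50 from 4-parameter logistic curves of HTRF % Delta F signal. Receptor-expressing CHO cells (hGCGR 2×10^5 cells/mL, hGLP-1R 1×10^5 cells/mL) were exposed for 30 min at room temperature before two-step cAMP detection.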

[2] = biological target: human glucagon receptor (hGCGR) (Homo sapiens, UniProt P47871); experiment: cAMP production (HTRF) in CHO cells expressing hGCGR; assay type: cell-based; set-up: expressed in transfected cells; settings: Table 6, peptides modified at position 17; cAMP in CHO hGCGR cells; geometric mean; read-out: hGluc-R EC50
Summary of the method: as §1

Chain of human glucagon receptor (hGCGR) (P47871 26-477): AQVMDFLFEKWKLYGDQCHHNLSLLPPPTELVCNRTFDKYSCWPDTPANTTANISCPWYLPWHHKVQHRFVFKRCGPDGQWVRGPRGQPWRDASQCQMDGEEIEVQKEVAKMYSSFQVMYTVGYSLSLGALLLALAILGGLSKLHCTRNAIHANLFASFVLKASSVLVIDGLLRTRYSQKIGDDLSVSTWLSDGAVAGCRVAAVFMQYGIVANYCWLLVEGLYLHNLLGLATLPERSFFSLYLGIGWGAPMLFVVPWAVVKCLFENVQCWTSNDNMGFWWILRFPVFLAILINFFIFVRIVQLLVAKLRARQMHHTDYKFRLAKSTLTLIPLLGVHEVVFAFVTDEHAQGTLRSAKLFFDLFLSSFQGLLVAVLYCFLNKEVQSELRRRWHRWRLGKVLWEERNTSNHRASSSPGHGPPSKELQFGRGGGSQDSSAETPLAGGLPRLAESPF
Chain of human GLP-1 receptor (hGLP-1R) (P43220 24-463): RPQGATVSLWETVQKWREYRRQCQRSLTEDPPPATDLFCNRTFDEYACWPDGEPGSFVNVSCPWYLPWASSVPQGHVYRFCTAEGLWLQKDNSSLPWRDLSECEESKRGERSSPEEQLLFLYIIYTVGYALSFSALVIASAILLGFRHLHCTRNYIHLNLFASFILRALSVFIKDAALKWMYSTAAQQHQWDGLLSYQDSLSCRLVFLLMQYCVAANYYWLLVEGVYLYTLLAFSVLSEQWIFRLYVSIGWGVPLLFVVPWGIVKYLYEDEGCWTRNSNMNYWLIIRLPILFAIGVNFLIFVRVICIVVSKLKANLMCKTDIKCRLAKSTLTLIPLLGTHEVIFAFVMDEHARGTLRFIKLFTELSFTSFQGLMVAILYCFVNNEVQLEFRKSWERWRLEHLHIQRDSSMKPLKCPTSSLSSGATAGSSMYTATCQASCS

% Relative Potency Ratio [1] | EC50 [2] | EC50 ([1]; Table 6, peptides modified at position 17, cAMP in CHO hGLP-1R cells, geometric mean, read-out: hGLP-1R EC50) | SMILES
17.6 | 0.0041 nM | – | CCCCCCCCCCCCCC(=O)N[C@@H](CCC(=O)NCCOCCOCCC(=O)NCCOCCOCCC(=O)NCCCC[C@H](NC(=O)[C@H](CO)NC(=O)[C@H](CC(=O)O)NC(=O)[C@H](CC(C)C)NC(=O)[C@@H](NC(=O)[C@H](CCCCN)NC(=O)[C@H](CO)NC(=O)[C@@H](NC(=O)[C@H](CC(=O)O)NC(=O)[C@H](CO)NC(=O)[C@@H](NC(=O)[C@](C)(Cc1ccccc1)NC(=O)[C@H](CO)NC(=O)CNC(=O)[C@H](CCC(N)=O)NC(=O)C(C)(C)NC(=O)[C@@H](N)Cc1c[nH]cn1)[C@@H](C)O)C(C)C)[C@@H](C)CC)C(=O)N[C@@H](C)C(=O)N[C@@H](C)C(=O)N[C@@H](CCC(N)=O)C(=O)N[C@@H](CC(=O)O)C(=O)N[C@@](C)(Cc1ccccc1)C(=O)N[C@H](C(=O)N[C@@H](CCC(N)=O)C(=O)NC(C)(C)C(=O)N[C@H](C(=O)N[C@H](C(=O)N[C@@H](CC(N)=O)C(=O)N[C@H](C(N)=O)[C@@H](C)O)[C@@H](C)CC)[C@@H](C)CC)C(C)C)C(=O)O [Peptide 129] (H-H[Aib]QGS[αMeF]TSDVSKILDSK([PEG2-PEG2-γGlu-Myristoyl])AAQD[αMeF]VQ[Aib]IINT-NH2)
59.9 | 0.0329 nM | 1.09 pM | CCCCCCCCCCCCCCCCCC(=O)N[C@@H](CCC(=O)N[C@@H](CCC(=O)NCCOCCOCCC(=O)NCCOCCOCCC(=O)NCCCC[C@H](NC(=O)[C@H](CO)NC(=O)[C@H](CC(=O)O)NC(=O)[C@H](CC(C)C)NC(=O)[C@@H](NC(=O)[C@H](CCCCN)NC(=O)[C@H](CO)NC(=O)[C@@H](NC(=O)[C@H](CC(=O)O)NC(=O)[C@H](CO)NC(=O)[C@@H](NC(=O)[C@](C)(Cc1ccccc1)NC(=O)[C@H](CO)NC(=O)CNC(=O)[C@H](CCC(N)=O)NC(=O)[C@](C)(CO)NC(=O)[C@@H](N)Cc1c[nH]cn1)[C@@H](C)O)C(C)C)[C@@H](C)CC)C(=O)N[C@@H](C)C(=O)N[C@@H](C)C(=O)N[C@@H](CCC(N)=O)C(=O)N[C@@H](CC(=O)O)C(=O)N[C@@](C)(Cc1ccccc1)C(=O)N[C@H](C(=O)N[C@@H](CCC(N)=O)C(=O)NC(C)(C)C(=O)N[C@H](C(=O)N[C@H](C(=O)N[C@@H](CC(N)=O)C(=O)N[C@H](C(N)=O)[C@@H](C)O)[C@@H](C)CC)[C@@H](C)CC)C(C)C)C(=O)O)C(=O)O [Peptide 130] (H-H[αMeS]QGS[αMeF]TSDVSKILDSK([PEG2-PEG2-γGlu-γGlu-Stearoyl])AAQD[αMeF]VQ[Aib]IINT-NH2; N-terminus assumed)
68.9 | 0.0178 nM | – | CCCCCCCCCCCCCCCC(=O)N[C@@H](CCC(=O)N[C@@H](CCC(=O)NCCOCCOCCC(=O)NCCOCCOCCC(=O)NCCCC[C@H](NC(=O)[C@H](CO)NC(=O)[C@H](CC(=O)O)NC(=O)[C@H](CC(C)C)NC(=O)[C@@H](NC(=O)[C@H](CCCCN)NC(=O)[C@H](CO)NC(=O)[C@@H](NC(=O)[C@H](CC(=O)O)NC(=O)[C@H](CO)NC(=O)[C@@H](NC(=O)[C@](C)(Cc1ccccc1)NC(=O)[C@H](CO)NC(=O)CNC(=O)[C@H](CCC(N)=O)NC(=O)[C@](C)(CO)NC(=O)[C@@H](N)Cc1c[nH]cn1)[C@@H](C)O)C(C)C)[C@@H](C)CC)C(=O)N[C@@H](C)C(=O)N[C@@H](C)C(=O)N[C@@H](CCC(N)=O)C(=O)N[C@@H](CC(=O)O)C(=O)N[C@@](C)(Cc1ccccc1)C(=O)N[C@H](C(=O)N[C@@H](CCC(N)=O)C(=O)NC(C)(C)C(=O)N[C@H](C(=O)N[C@H](C(=O)N[C@@H](CC(N)=O)C(=O)N[C@H](C(N)=O)[C@@H](C)O)[C@@H](C)CC)[C@@H](C)CC)C(C)C)C(=O)O)C(=O)O [Peptide 131] (H-H[αMeS]QGS[αMeF]TSDVSKILDSK([PEG2-PEG2-γGlu-γGlu-Palmitoyl])AAQD[αMeF]VQ[Aib]IINT-NH2; N-terminus assumed)

— patent US20250353891A1 (MEDIMMUNE LIMITED, priority 2022, published 2025)
